Test results: the NIST ThermoML archive (doi:10.1021/je0604380)
Numbers after ± are expanded uncertainties.

Conditions: Liquid; for Critical pressure: pulse heating; for Critical temperature: pulse-heating method

Critical pressure [kPa] | Critical temperature [K] | Structure (SMILES)
3850 ± 240 | 720 ± 14 | OCCc1ccccc1 [2-phenylethanol]
3460 ± 200 | 732 ± 14 | OCCCc1ccccc1 [3-phenyl-1-propanol]
3070 ± 180 | 746 ± 14 | OCCCCc1ccccc1 [4-phenyl-1-butanol]
5670 ± 340 | 695 ± 14 | Oc1ccccc1 [phenol]
